Assay results from US11427575B2, “Antitumor compound for activating JWA gene and degrading HER2, preparation method thereof, and application thereof” (SIMCERE PHARMACEUTICAL CO., LTD., priority 2019, dated 2022).

Experiments:
SKBR3 cells = conditions: SKBR3, 1 and 10 μM, 10-15 d, vs control
Procedure: (§1) Two human breast cancer cell lines BT474 and SKBR3 were incubated in DMEM medium containing, respectively, 20% and 10% fetal bovine serum (FBS), conventional double-antibody, and were placed in a 37° C. incubator with 5% CO2. The BT474 and SKBR3 cells in the logarithmic growth phase were transferred into 6-well plates for 800 cells per well. After the cells adhered to the walls of the plates, the cells were cultured in the medium containing different concentrations (0, 1, and 10 μM) of JAC1, respectively. By observing the formation of each cell colony, the cells were continued to be cultured for 10-15 d, followed by removal of medium. After fixation with methanol and photographing, the number of the cell colonies (each containing more than 50 cells) was counted using the software ImageJ, and the computer program SPSS is used for statistical analysis.

BT474 cells = conditions: BT474, 1 and 10 μM, 10-15 d, vs control
Procedure: as §1

[1] = H&E staining, tumor-bearing nude mice
Text: A model of nude mice subcutaneously transplanted with human breast cancer cells was built with reference to the method of Example 16. The laboratory mice that have been modeled were anesthetized and euthanized to observe and determine whether damage occurred to the major organs of laboratory mice. The major organs tissues from the laboratory mice, such as heart, liver, spleen, lung, kidney, and brain, were fixed in formalin solution using conventional methods. After paraffin embedding and tissue sectioning, the thick tissue sections were stained with H&E to observe whether the organ tissues were normal in morphology.

HER2 protein [2] = test: Western blot in BGC823 gastric cancer cells (JWA WT and JWA KO), HER2; format: cell-based, human; conditions: 10 μM, 48 h
Text: A HER2-positive BGC823 human gastric cancer cell line was established in which JWA gene was deleted using Crisp/cas9 technology. […] After protein extraction, western blotting technology was used to determine the expression levels of JWA and HER2 proteins in the wild-type cell line (JWA WT) and the JWA-knockout cell line (JWA KO).

promoter of JWA gene = test: Luciferase reporter gene under control of JWA gene promoter in HBE cells (high-throughput screening); format: cell-based, human; conditions: for fluorescence intensity of reporter gene: 48 h
Text: High-throughput screening (HTS) was used to identify the human bronchial epithelial (HBE) cells stably transfected with a DNA construct with a luciferase gene under control of a 2,000 bp long promoter of JWA gene.
FIG. 1 is a sequence containing the 2000 bp promoter sequence of JWA gene that was used for a luciferase reporter gene plasmid construction.

[3] = Serum biochemical indexes in tumor-bearing nude mice; conditions: particularly 100 mg/kg, vs blank control
Text: A model of nude mice subcutaneously transplanted with human breast cancer cells was built with reference to the method of Example 16. The laboratory mice that have been modeled were anesthetized to determine whether damage occurred to the major organs in the mouse body. Whole blood was collected from the anesthetized mice, and the serum was separated and used to detect a change in the serum biochemical indexes using an automatic biochemistry analyzer.

HER2 protein [4] = test: Western blot in HER2-positive breast cancer cells, HER2; format: cell-based, human; conditions: increasing concentration, 24 h
Procedure: The cells in the logarithmic growth phase were routinely digested, and transferred into 6-well plates at the cell density of 40%-50%. The cells were incubated with different concentrations of JAC1 for 24 h, followed by an addition of 0.1 mL of Radioimmunoprecipitation Assay Butter (RIPA, containing 0.5% phenylmethylsulfonyl fluoride (PMSF)) for protein extraction. After centrifugation at 12,000×g for 15 min, the supernatant was collected, and brought to a determination of protein concentration and a boil. Protein electrophoresis was performed with 10% polyacrylamide gel. The protein was transferred into the gel wells for 40 μg protein per well, migrated at 60 V for 30 min, and 90 V for 1.5-2 h. After gel electrophoresis, the protein was transferred by wet method from gel to a PVDF membrane, and blocked with 5% skim milk at room temperature for 1-2 h. The membrane was washed with Tris-Buffered Saline and Tween 20 (TBST, containing 0.1% Tween 20) three times for 5 min each, and incubated in the corresponding primary antibody overnight at 4° C. The membrane was then washed with the TBST (containing 0.1% Tween 20) three times for 5 min each, incubated in the secondary antibody at room temperature for 1-2 h, and washed with the TBST (containing 0.1% Tween 20) eight times for 5 min each. […]

JWA protein = test: Laser confocal immunofluorescence in HER2-positive breast cancer cells, JWA; format: cell-based, human; conditions: immunofluorescence, 0, 1, 10 μM, 24 h
Procedure: (§2) The cells were inoculated into a 35 mm glass bottom dish, treated with different concentrations (0, 1, and 10 μM) of JAC1 for 24 h, fixed with methanol for 15 min, washed three times with PBST, blocked with normal sheep serum for 1 h, and incubated in primary antibody overnight at 4° C. The cells were then washed three times with PBST, incubated in fluorescent secondary antibody and 4′,6-diamidino-2-phenylindole (DAPI), and photographed using a laser confocal scanning microscopy.

HER2 protein [5] = test: Laser confocal immunofluorescence in HER2-positive breast cancer cells, HER2 level and localization; format: cell-based, human; conditions: immunofluorescence, 0, 1, 10 μM, 24 h
Procedure: as §2

SMILES: COc1cccc2sc(Nc3nc4c(F)cccc4s3)nc12 [JAC1, 4-fluoro-N-(4-methoxybenzene (d)thiazole-2-group) benzene (d) thiazole-2-amine]
- colony-forming ability (SKBR3 cells): significantly reduce the colony-forming ability
- colony-forming ability (BT474 cells): significantly reduce the colony-forming ability
- morphology of major organs (heart, liver, spleen, lung, kidney, brain) [1]: no obvious anomalies were observed
- HER2 expression level (HER2 protein [2]; BGC823 JWA KO): no effect
- HER2 expression (HER2 protein [2]; BGC823 JWA WT): repress HER2 expression
- fluorescence intensity of reporter gene (promoter of JWA gene; 0.05 μg/mL): 13560.00
- fluorescence intensity of reporter gene (promoter of JWA gene; 0.10 μg/mL): 16200.00
- fluorescence intensity of reporter gene (promoter of JWA gene; 0.21 μg/mL): 21975.00
- fluorescence intensity of reporter gene (promoter of JWA gene; 0.41 μg/mL): 28186.67
- fluorescence intensity of reporter gene (promoter of JWA gene; 0.83 μg/mL): 38760.00
- fluorescence intensity of reporter gene (promoter of JWA gene; 1.65 μg/mL): 54293.33
- fluorescence intensity of reporter gene (promoter of JWA gene; 3.30 μg/mL): 68080.00
- activation of JWA gene (promoter of JWA gene; result in words): particularly significant effect on activation of JWA gene
- alanine transaminase (ALT) [3]: significant decreases
- aspartate transaminase (AST) [3]: significant decreases
- creatine kinase (CK) [3]: significant decreases
- creatine kinase isoenzyme (CKMB) [3]: significant decreases
- superoxide dismutase (SOD) [3]: significantly increased
- triglyceride (TG) [3]: significant decreases
- HER2 protein level (HER2 protein [4]): HER2 protein level decreases
- JWA protein level (JWA protein): JWA protein level increased
- HER2 protein level (HER2 protein [5]): HER2 protein level reduced
- cellular localization of HER2 protein (HER2 protein [5]): no effect on the localization of HER2 protein in the cell membrane
